Reference: patent US10165791B2, “Use of rubusoside for reducing or suppressing certain unpleasant taste impressions” (Symrise AG, priority 2010, dated 2019)

B1: miraculin: protein that in the presence of acids transforms the sour impression into a sweet taste impression (protein, UniProt P13087 30-220, looked up)
Miraculin: DSAPNPVLDIDGEKLRTGTNYYIVPVLRDHGGGLTVSATTPNGTFVCPPRVVQTRKEVDHDRPLAFFPENPKEDVVRVSTDLNINFSAFMPCRWTSSTVWRLDKYDESTGQYFVTIGGVKGNPGPETISSWFKIEEFCGSGFYKLVFCPTVCGSCKVKCGDVGIYIDQKGRRRLALSDKPFAFEFNKTVYF

Assays:
[1] = own tests: taste of rubusoside in water; format: in vivo, human
Description: It is known that extracts from Rubus suavissimus or certain compounds isolated therefrom are able to make sweet-tasting orally consumable preparations taste even sweeter, as described in WO 2008/049256. Moreover, it is known that isolated rubusoside from Rubus suavissimus tastes perceptibly sweet starting from a concentration of approx. 25 mg/kg (equivalent to 25 ppm) (taste recognition threshold). Rubusoside can be used as a sweetener (Hirono, S.; Chou, W. H.; Kasai, R.; Tanaka, O.; Tada, T., Sweet and bitter diterpene glucosides from leaves of Rubus suavissimus. Chemical & Pharmaceutical Bulletin 1990, 38, (6), 1743-1744).

[2] = Reduction of astringent and sour impression, panel of trained tasters; format: in vivo, human; settings: Yogurt 0.1% fat; 10 mg/kg rubusoside
Description: The following products, in each case without and with a flavoring composition, were assessed by a panel of trained tasters. The astringent impression and sour impression were assessed on a scale from 1 (not perceptible) to 9 (very strong) and averaged for the tasters.

[3] = isolated rubusoside from Rubus suavissimus; equivalent to 25 ppm; cited from earlier work
[4] = in the presence of acids; cited from earlier work

Molecule	sweet taste equivalent to the sweetness of an aqueous sucrose solution ([1]; 100 mg/kg (100 ppm) in water) [%]	concentration above which a recognizably bitter taste is additionally displayed ([1]; in water) [mg/kg]	Astringent impression (0-9) b) with test substance [2]	Sour impression (0-9) b) with test substance [2]	taste recognition threshold (tastes perceptibly sweet starting from) [3]	duration of the conversion of sour impression to sweet taste [4] [h]
C=C1C[C@@]23CC[C@H]4[C@@](C)(CCC[C@@]4(C)C(=O)O[C@@H]4O[C@H](CO)[C@@H](O)[C@H](O)[C@H]4O)[C@@H]2CC[C@]1(O[C@@H]1O[C@H](CO)[C@@H](O)[C@H](O)[C@H]1O)C3 [rubusoside, Rubusoside]	1.4	> 100	5	5.5	approx. 25 mg/kg	–
B1	–	–	–	–	–	2 to 4
